This assay deals with T1, human recombinant PDE5 (Homo sapiens, UniProt O76074).
T1 construct: made in house
Put plainly: Phosphodiesterase [3H] cGMP-SPA enzyme assay (inhibition of PDE5 in vitro). In kind it is biochemical. The following applies: human recombinant PDE5 expressed in a bacculovirus system; substance concentration at which the reaction rate is reduced by 50%; read-out: PDE V IC50. The procedure: To test the inhibiting action, the “Phosphodiesterase [^3H] cGMP-SPA enzyme assay” from Amersham Life Science was used. The test was carried out according to the manufacturer's test protocol. Use was made of human recombinant PDE5 which was expressed in a bacculovirus system. The substance concentration at which the reaction rate is reduced by 50% was measured.

IC50 data for 4 compounds are collected here from patent US20060160810A1, “2-Alkoxyphenyl substituted imidazotriazinones” (priority 2001, published 2006).

The structures appear in SMILES notation. pIC50: −log10 of the molar value.

As to `CCCc1nc(C)c2c(=O)[nH]c(-c3cc(S(=O)(=O)N4CCNCC4)ccc3OCC)nn12` [Example 1, 2-[2-Ethoxy-5-(1-piperazinylsulphonyl)phenyl]-5-methyl-7-propylimidazo-[5,1-f]-1,2,4-triazin-4(3H)-one], the pIC50 (in general, −log10 of the IC50, conventionally taken in molar units) was 8.38. Take `CCCc1nc(C)c2c(=O)[nH]c(-c3cc(S(=O)(=O)N4CC[N+]([O-])(CC)CC4)ccc3OCC)nn12` [Example 2, 2-{2-Ethoxy-5-[(4-ethyl-4-hydroxy-4λ^5-piperazin-1-yl)sulphonyl]phenyl}-5-methyl-7-propylimidazo[5,1-f]-1,2,4-triazin-4(3H)-one]: the pIC50 is 7.72.

On to `CCCc1nc(C)c2c(=O)[nH]c(-c3cc(S(=O)(=O)NCCNCC)ccc3OCC)nn12` [Example 3, 4-Ethoxy-N-[2-(ethylamino)ethyl]-3-(5-methyl-4-oxo-7-propyl-3,4-dihydroimidazo[5,1-f]-1,2,4-triazin-2-yl)benzenesulphonamide], for which the pIC50 was 7.72. In the case of `CCCc1nc(C)c2c(=O)[nH]c(-c3cc(S(=O)(=O)NCCN)ccc3OCC)nn12` [Example 4, N-(2-aminoethyl)-4-ethoxy-3-(5-methyl-4-oxo-7-propyl-3,4-dihydroimidazo[5,1-f]-1,2,4-triazin-2-yl)benzenesulphonamide], the pIC50 is 8.62.
